Patent US20250092065A1, “2-(INDAZOL-5-YL)-6-(PIPERIDIN-4-YL)-1,7-NAPHTHYRIDINE DERIVATIVES AND RELATED COMPOUNDS AS MODULATORS FOR SPLICING NUCLEIC ACIDS AND FOR THE TREATMENT OF PROLIFERATIVE DISEASES” (REMIX THERAPEUTICS INC., priority 2022, published 2025)
Where two headings read alike, the source gives them in different places.

Experiments:
MYB mRNA = test: RT-qPCR splicing assay, MYB mRNA canonical (CJ) and alternative (AJ) junction; assay type: cell-based, human; conditions: Homo sapiens; for AC50: MYB alternative junction mRNA, read-out: MYB AJ (increase in AJ mRNA, AC50)
How it was run: (§1)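 A673 or K562 cells treated 24 h at 37 °C with an 11-point 3-fold dilution series (top 10 uM, DMSO ≤0.25%). Lysates went directly to one-step RT-qPCR quantifying canonical (CJ) and alternative-exon (AJ) junctions, normalized to GAPDH, GUSB or PPIA. Values from ΔΔCt versus DMSO, RQ = 2^(−ΔΔCt), expressed as percentage response.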

K562 cells = test: Cell Titer Glo 2.0 cell viability (toxicity) assay, K562; conditions: 500 cells/well, 72 hours
Target C = test: RT-qPCR canonical junction panel assay, Target C mRNA; assay type: cell-based; conditions: Table 4, read-out: Target C IC50 (decrease in CJ mRNA levels)
How it was run: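 A673 or K562 cells treated with compound; CJ mRNA quantified by junction-spanning RT-qPCR probe after cDNA synthesis, normalised to GAPDH, GUSB or PPIA and DMSO (2^−ΔΔCt), scaled to set ΔCt assay window; IC50 from 4-parameter fit of CJ decrease.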

SMN2 mRNA = test: RT-qPCR splicing assay, SMN2 mRNA; assay type: cell-based, human; conditions: Homo sapiens, canonical junction qPCR panel, Table 4; read-out: SMN2 IC50 (decrease in CJ mRNA levels)
How it was run: as §1

HTT mRNA = test: RT-qPCR splicing assay, HTT mRNA canonical (CJ) and alternative (AJ) junction; assay type: cell-based, human; conditions: Homo sapiens; for AC50: HTT alternative junction mRNA, read-out: HTT AJ (increase in AJ mRNA, AC50)
How it was run: as §1

[1] = MYB canonical junction mRNA, RT-qPCR, read-out: MYB CJ (decrease in CJ mRNA levels, IC50)
[2] = canonical junction qPCR panel, Table 4, read-out: MYB IC50 (decrease in CJ mRNA levels)
[3] = HTT canonical junction mRNA, RT-qPCR, read-out: HTT CJ (decrease in CJ mRNA levels, IC50)
[4] = canonical junction qPCR panel, Table 4, read-out: HTT IC50 (decrease in CJ mRNA levels)

SMILES | AC50 (MYB mRNA; RT-qPCR) [nM] | IC50 (MYB mRNA; [1]) [nM] | IC50 (MYB mRNA; [2]) [nM] | Effect of Exemplary Compounds on Cell Viability, K562 (K562 cells) | IC50 (Target C) [nM] | IC50 (SMN2 mRNA) [nM] | AC50 (HTT mRNA; RT-qPCR) [nM] | IC50 (HTT mRNA; [3]) [nM] | IC50 (HTT mRNA; [4]) [nM]
Cn1cc2cc(-c3ccc4nc(C5CCNC[C@H]5O)ccc4n3)c(O)cc2n1 (single isomer, unassigned) [Compound 386] | 1000 to 10000 | 100 to 1000 | 100 to 1000 | C (C represents 1000-9999 nM) | > 10000 | < 100 | > 10000 | > 10000 | > 10000
Cn1cc2cc(-c3ccc4nc(N5CC[C@@H](NC(C)(C)C)C5)ccc4n3)c(O)c(F)c2n1 (single isomer, unassigned) [Compound 391] | < 100 | < 100 | < 100 | A (A represents <100 nM) | < 100 | < 100 | < 100 | < 100 | < 100
Cn1cc2cc(-c3ccc4nc(N5CC[C@H](NC(C)(C)C)C5)ccc4n3)c(O)c(F)c2n1 (single isomer, unassigned) [Compound 392] | < 100 | < 100 | < 100 | A (A represents <100 nM) | < 100 | < 100 | < 100 | < 100 | < 100
Cc1c(O)c(-c2ncc3nc([C@@H]4CCNC4)ccc3n2)cc2cn(C)nc12 (single isomer, unassigned) [Compound 398] | 1000 to 10000 | 1000 to 10000 | 1000 to 10000 | C (C represents 1000-9999 nM) | > 10000 | < 100 | 1000 to 10000 | 1000 to 10000 | 1000 to 10000
Cc1nc2c(C)c(O)c(-c3ccc4nc(N5CC[C@@H](NC6CC6)C5)ncc4n3)cc2o1 (single isomer, unassigned) [Compound 432] | 100 to 1000 | < 100 | < 100 | B (B represents 100-1000 nM) | < 100 | < 100 | < 100 | < 100 | < 100
Cc1nc2cc(O)c(-c3ccc4nc(N5CC[C@@H](NC6CC6)C5)ncc4n3)cc2o1 (single isomer, unassigned) [Compound 434] | 100 to 1000 | 100 to 1000 | 100 to 1000 | B (B represents 100-1000 nM) | 100 to 1000 | < 100 | < 100 | < 100 | < 100
Cc1nc2c(C)c(O)c(-c3ccc4cc(N5CC[C@@H](NC(C)(C)C)C5)ncc4n3)cc2o1 (single isomer, unassigned) [Compound 444] | 100 to 1000 | 100 to 1000 | 100 to 1000 | B (B represents 100-1000 nM) | 100 to 1000 | < 100 | 100 to 1000 | < 100 | < 100
Cc1nc2c(C)c(O)c(-c3ccc4cc(N5CC[C@H](NC(C)(C)C)C5)ncc4n3)cc2o1 (single isomer, unassigned) [Compound 445] | 1000 to 10000 | 1000 to 10000 | 1000 to 10000 | C (C represents 1000-9999 nM) | 1000 to 10000 | 100 to 1000 | 1000 to 10000 | 1000 to 10000 | 1000 to 10000
Cc1nc2cc(O)c(-c3ccc4nc(N5CC[C@@H](NC6(CF)CC6)C5)ccc4n3)cc2o1 (single isomer, unassigned) [Compound 488] | < 100 | < 100 | < 100 | B (B represents 100-1000 nM) | < 100 | < 100 | < 100 | < 100 | < 100
Cc1nc2cc(O)c(-c3ccc4nc(N5CC[C@H](NC6(CF)CC6)C5)ccc4n3)cc2o1 (single isomer, unassigned) [Compound 489] | < 100 | < 100 | < 100 | A (A represents <100 nM) | 100 to 1000 | < 100 | < 100 | < 100 | < 100
Cc1nc2c(F)c(O)c(-c3ccc4nc(N5CC[C@@H](NC6(CF)CC6)C5)ccc4n3)cc2o1 (single isomer, unassigned) [Compound 491] | < 100 | < 100 | < 100 | A (A represents <100 nM) | < 100 | < 100 | < 100 | < 100 | < 100
